In the test the test system is B6C3F1 mice, intracerebral ependymoblastoma, median survival T/C. As to the kind of experiment: NCI In Vivo Anticancer Drug Screen. Data for tumor model Ependymoblastoma (intracerebral) in B6C3F1 mice. To be noted: endpoint: median survival time, higher = longer survival. As to the method:
The antitumor activity of compounds was measured in mice bearing transplantable tumors. Survival or tumor size were measured and the results are expressed as the measurement made in the treated group (T) divided by the measurement made in the vehicle treated control group (C). The tumor model used in this assay is Ependymoblastoma (intracerebral) in B6C3F1 mice

Setting [1] is: dose: 0.25 mg/kg/injection, schedule: Q01DX005 (ip), vehicle: saline.
The mark [2] stands for this setting: dose: 1.0 mg/kg/injection, schedule: Q01DX005 (ip), vehicle: saline.
Setting [3] is: dose: 4.0 mg/kg/injection, schedule: Q01DX005 (ip), vehicle: saline with Tween-80.
[4] abbreviates: dose: 8.0 mg/kg/injection, schedule: Q01DX005 (ip), vehicle: saline with Tween-80.
Setting [5] is: dose: 16.0 mg/kg/injection, schedule: Q01DX005 (ip), vehicle: saline with Tween-80.
Setting [6] is: dose: 32.0 mg/kg/injection, schedule: Q01DX005 (ip), vehicle: saline with Tween-80.
The mark [7] stands for this setting: dose: 64.0 mg/kg/injection, schedule: Q01DX005 (ip), vehicle: saline with Tween-80.
[8] abbreviates: dose: 1.0 mg/kg/injection, schedule: Q01DX005 (ip), vehicle: Klucel (hydroxypropylcellulose) (HPC).
[9] abbreviates: dose: 2.0 mg/kg/injection, schedule: Q01DX005 (ip), vehicle: Klucel (hydroxypropylcellulose) (HPC).
Where [10] appears, read: dose: 4.0 mg/kg/injection, schedule: Q01DX005 (ip), vehicle: Klucel (hydroxypropylcellulose) (HPC).
The mark [11] stands for this setting: dose: 8.0 mg/kg/injection, schedule: Q01DX005 (ip), vehicle: Klucel (hydroxypropylcellulose) (HPC).
Where [12] appears, read: dose: 32.0 mg/kg/injection, schedule: Q01DX005 (ip), vehicle: Klucel (hydroxypropylcellulose) (HPC).
Setting [13] is: dose: 64.0 mg/kg/injection, schedule: Q01DX005 (ip), vehicle: Klucel (hydroxypropylcellulose) (HPC).
Where [14] appears, read: dose: 0.06 mg/kg/injection, schedule: Q01DX005 (ip), vehicle: saline.

Each structure is given as a SMILES string. Where “and” joins values, the source holds several entries; their conditions need not be identical. Identical values can stand only once. Inconclusive results and toxic doses are left out.

In the case of `OCC1OC(n2cnc3c2NC=NC[C@H]3O)CC1O` (stereo partly specified), the T/C was 102 % of control (dose: 0.12 mg/kg/injection, schedule: Q#ADX018 (ip), vehicle: saline); 108 % of control and 113 % of control under setting [1]; 103 % of control (dose: 0.25 mg/kg/injection, schedule: Q#ADX018 (ip), vehicle: saline); 100 % of control and 103 % of control (dose: 0.5 mg/kg/injection, schedule: Q01DX005 (ip), vehicle: saline); 103 % of control and 116 % of control (dose: 0.5 mg/kg/injection, schedule: Q01DX009 (ip), vehicle: saline); 122 % of control (dose: 0.5 mg/kg/injection, schedule: Q#A X010 (ip), vehicle: saline). Besides, the T/C by setting is: (dose: 1.0 mg/kg/injection, schedule: Q01DX009 (ip), vehicle: saline) 88 % of control; (dose: 2.0 mg/kg/injection, schedule: Q01DX009 (ip), vehicle: saline) 91 % of control.
For `O=P1(N(CCCl)CCCl)NCCCO1` (stereo unspecified), the T/C (dose: 40.0 mg/kg/injection, schedule: Q01DX001 (ip), vehicle: saline) is 109 % of control and the T/C (dose: 320.0 mg/kg/injection, schedule: Q01DX001 (ip), vehicle: saline) is 163 % of control.
For `COC1C(O)C(C)OC(OC2C(Oc3cccc4c(O)c5c(=O)oc6ccc(C)c7c(=O)oc(c34)c5c67)OC(C)C(O)C2O)C1O` (stereo unspecified), the T/C runs as follows: under setting [2], 105 % of control; (dose: 2.0 mg/kg/injection, schedule: Q01DX005 (ip), vehicle: saline with Tween-80) 94 % of control and 105 % of control; (dose: 2.0 mg/kg/injection, schedule: Q01DX005 (ip), vehicle: saline) 98 % of control; under setting [3], 99 % of control and 102 % of control; (dose: 4.0 mg/kg/injection, schedule: Q01DX005 (ip), vehicle: saline) 96 % of control; under setting [4], 102 % of control and 104 % of control. The T/C is, setting by setting: (dose: 8.0 mg/kg/injection, schedule: Q01DX005 (ip), vehicle: saline) 101 % of control; under setting [5], 100 % of control and 105 % of control; (dose: 16.0 mg/kg/injection, schedule: Q01DX005 (ip), vehicle: saline) 93 % of control; under setting [6], 106 % of control and 89 % of control; (dose: 32.0 mg/kg/injection, schedule: Q01DX005 (ip), vehicle: saline) 98 % of control; under setting [7], 102 % of control and 108 % of control. The T/C (dose: 64.0 mg/kg/injection, schedule: Q01DX005 (ip), vehicle: saline) was 103 % of control; the T/C (dose: 128.0 mg/kg/injection, schedule: Q01DX005 (ip), vehicle: saline with Tween-80) was 106 % of control and 111 % of control; the T/C (dose: 128.0 mg/kg/injection, schedule: Q01DX005 (ip), vehicle: saline) was 98 % of control.
With `O=C(O)CCCc1ccc(N(CCCl)CCCl)cc1`, the T/C is 114 % of control (dose: 0.5 mg/kg/injection, schedule: Q01DX005 (ip), vehicle: Klucel (hydroxypropylcellulose) (HPC)); 114 % of control under setting [8]; 120 % of control (dose: 1.0 mg/kg/injection, schedule: Q01DX005 (ip), vehicle: saline with Tween-80); 103 % of control and 104 % of control (2×) (dose: 2.0 mg/kg/injection, schedule: Q01DX001 (ip), vehicle: Klucel (hydroxypropylcellulose) (HPC)); 113 % of control under setting [9]; 97 % of control and 104 % of control and 105 % of control (dose: 4.0 mg/kg/injection, schedule: Q01DX001 (ip), vehicle: Klucel (hydroxypropylcellulose) (HPC)). In addition, the T/C is 105 % of control under setting [10]; 100 % of control and 101 % of control and 108 % of control (dose: 8.0 mg/kg/injection, schedule: Q01DX001 (ip), vehicle: Klucel (hydroxypropylcellulose) (HPC)); 113 % of control under setting [11]; 153 % of control under setting [4]; 104 % of control and 108 % of control and 110 % of control (dose: 16.0 mg/kg/injection, schedule: Q01DX001 (ip), vehicle: Klucel (hydroxypropylcellulose) (HPC)); 180 % of control under setting [5]. For the setting “dose: 32.0 mg/kg/injection, schedule: Q01DX001 (ip), vehicle: Klucel (hydroxypropylcellulose) (HPC)”, the T/C is 114 % of control and 117 % of control and 121 % of control.
On to `O=C(O)C(O)C(O)C(=O)O.[NH-]C1CCCCC1[NH-].[Pt+2]` (stereo unspecified), for which the T/C (dose: 2.0 mg/kg/injection, schedule: Q01DX005 (ip), vehicle: dextrose) is 96 % of control and the T/C (dose: 4.0 mg/kg/injection, schedule: Q01DX005 (ip), vehicle: dextrose) is 110 % of control.
As to `COC(=O)C(Cc1ccc(N(CCCl)CCCl)cc1)N=NNc1nc[nH]c1C(N)=O` (stereo unspecified), the T/C under setting [3] was 107 % of control; the T/C under setting [4] is 101 % of control and 112 % of control; the T/C under setting [5] was 104 % of control and 118 % of control; the T/C under setting [6] is 123 % of control.
`CN(C)C1=CC(=O)C(N(C)C)=CC1=O`: the T/C is, setting by setting: (dose: 12.5 mg/kg/injection, schedule: Q01DX005 (ip), vehicle: saline) 105 % of control; (dose: 25.0 mg/kg/injection, schedule: Q01DX005 (ip), vehicle: saline) 101 % of control; (dose: 50.0 mg/kg/injection, schedule: Q01DX005 (ip), vehicle: saline) 100 % of control; (dose: 100.0 mg/kg/injection, schedule: Q01DX005 (ip), vehicle: saline) 97 % of control.
Turning to `COC1C(CO)OC(n2cnc3c(=S)nc(N)[nH]c32)C1O` (stereo unspecified), the T/C runs as follows: (dose: 12.5 mg/kg/injection, schedule: Q01DX005 (ip), vehicle: Klucel (hydroxypropylcellulose) (HPC)) 104 % of control; (dose: 25.0 mg/kg/injection, schedule: Q01DX005 (ip), vehicle: Klucel (hydroxypropylcellulose) (HPC)) 109 % of control; (dose: 50.0 mg/kg/injection, schedule: Q01DX005 (ip), vehicle: Klucel (hydroxypropylcellulose) (HPC)) 119 % of control; (dose: 100.0 mg/kg/injection, schedule: Q01DX005 (ip), vehicle: Klucel (hydroxypropylcellulose) (HPC)) 106 % of control.
For `CCOC(=O)C(CC(C)C)NC(=O)C(Cc1ccc(N(CCCl)CCCl)cc1)NC(C)=O` (stereo unspecified), the T/C was 87 % of control under setting [8]; 95 % of control under setting [9]; 97 % of control and 106 % of control and 113 % of control under setting [10]; 104 % of control and 108 % of control under setting [3]; 97 % of control and 102 % of control and 107 % of control under setting [11]; 101 % of control and 104 % of control under setting [4]. For the same compound, the T/C (dose: 16.0 mg/kg/injection, schedule: Q01DX005 (ip), vehicle: Klucel (hydroxypropylcellulose) (HPC)) was 100 % of control and 102 % of control and 105 % of control; the T/C under setting [5] was 98 % of control and 105 % of control; the T/C under setting [12] was 105 % of control and 109 % of control and 110 % of control; the T/C under setting [6] was 106 % of control; the T/C under setting [13] is 115 % of control; the T/C under setting [7] is 163 % of control.
Regarding `CCOC(=O)CC(SP(=S)(OC)OC)C(=O)OCC` (stereo unspecified), the T/C reads like this: (dose: 25.0 mg/kg/injection, schedule: Q01DX005 (ip), vehicle: suspension in saline) 100 % of control; (dose: 50.0 mg/kg/injection, schedule: Q01DX005 (ip), vehicle: suspension in saline) 124 % of control; (dose: 100.0 mg/kg/injection, schedule: Q01DX005 (ip), vehicle: suspension in saline) 101 % of control; (dose: 200.0 mg/kg/injection, schedule: Q01DX005 (ip), vehicle: suspension in saline) 105 % of control.
In the case of `CNNCc1ccc(C(=O)NC(C)C)cc1`, the T/C reads like this: under setting [12], 156 % of control; under setting [13], 155 % of control.
Regarding `[N-]=[N+]=CC(=O)CCC(N)C(=O)O` (stereo unspecified), the T/C is, setting by setting: (dose: 0.05 mg/kg/injection, schedule: Q01DX005 (ip), vehicle: saline) 111 % of control; under setting [14], 93 % of control and 117 % of control; (dose: 0.1 mg/kg/injection, schedule: Q01DX005 (ip), vehicle: saline) 97 % of control; (dose: 0.12 mg/kg/injection, schedule: Q01DX005 (ip), vehicle: saline) 111 % of control and 114 % of control; (dose: 0.2 mg/kg/injection, schedule: Q01DX005 (ip), vehicle: saline) 122 % of control.
`COc1cc(NC(=O)CN(CCCl)CCCl)cc(OC)c1OC`: the T/C is 113 % of control (dose: 25.0 mg/kg/injection, schedule: Q01DX009 (ip), vehicle: saline with Tween-80) and 113 % of control (dose: 50.0 mg/kg/injection, schedule: Q01DX009 (ip), vehicle: saline with Tween-80).
With `C1CN1c1nc(N2CC2)nc(N2CC2)n1`, the T/C reads like this: under setting [14], 110 % of control; (dose: 0.13 mg/kg/injection, schedule: Q01DX005 (ip), vehicle: saline) 106 % of control and 119 % of control; under setting [1], 115 % of control and 124 % of control; under setting [2], 189 % of control and 238 % of control.

(Values after PubChem BioAssay AID226 (DTP/NCI, 2004).)
